Experimental data: patent US20100210616A1, “METAL COMPLEXES INCORPORATED WITHIN BIODEGRADABLE NANOPARTICLES AND THEIR USE” (THE UNIVERSITY OF AKRON, priority 2007, published 2010)

Legend:
[1] = test system: J53 containing the silver resistance plasmid pMG101; assay: microbe, parasite or virus in culture; type: cell-based, E. coli; conditions: Escherichia coli
[2] = test system: P. aeruginosa (PAO1, PAM57-15 and PAJG3), B. cepacia (PC783), B. multivorans (HI2229), B. cenocepacia (J2315), B. dolosa, M. tuberculosis and control E. coli …; assay: MIC testing against panel of bacterial strains; type: cell-based; conditions: prior to loading in nanoparticles; for MIC range: panel of strains
[3] = MIC testing against panel of bacterial strains; type: cell-based; conditions: panel of strains; prior to loading in nanoparticles
[4] = test system: M. tuberculosis; assay: MIC against M. tuberculosis; type: cell-based; conditions: Mycobacterium tuberculosis
[5] = test system: silver sensitive E. coli J53; assay: MIC against silver sensitive E. coli J53; type: cell-based; conditions: Escherichia coli

Row | SMILES | MIC [1] [µg/mL] | MIC range [2] [µg/mL] | antimicrobial effectiveness in MIC testing versus other more water soluble silver metal complexes [2] | MIC90 [3] [µg/mL] | MIC [4] [µg/mL] | MIC [5] [µg/mL]
1 | CCCCCCN1C(Cl)=C(Cl)N(C)[CH]1[Ag][O]C(C)=O (stereo not drawn) [compound 9] | > 10 | 1 to 2 | more effective | 1 | 16000 | 1
2 | CC(=O)[O][Ag][CH]1N(C)c2c(n(C)c(=O)n(Cc3ccc4ccccc4c3)c2=O)N1C (stereo not drawn) [compound 13] | > 10 | 0.8 to 2 | more effective | 0.8 | 16000 | 1
